Consider 34 compounds from ChEMBL document CHEMBL4219095, “Synthesis and biological evaluation of 4,6-diaryl-2-pyrimidinamine derivatives as anti-breast cancer agents” (Bioorg Med Chem Lett, 2018).

pIC50: −log10 of the molar value. Activity calls are given as the source filed them. No cut-off for these calls is given here. Some results are limits rather than exact numbers.

The subject of data set [1] is MCF7. The data set can be described thus: Antiproliferative activity against human MCF7 cells after 48 hrs by MTT assay. The data set is classed as functional, cell-based. Particulars: MCF7, 48 h.
The next data set has as its system HUVEC. The data set can be described thus: Antiproliferative activity against HUVEC after 48 hrs by MTT assay. The data set is classed as functional, cell-based. The settings on record: Homo sapiens.
Data set [2] deals with Ishikawa. The data set can be described thus: Antiproliferative activity against human Ishikawa cells after 48 hrs by MTT assay. The data set is classed as functional, cell-based. On the technique in general: Tetrazolium assays rely on reduction of a dye to a coloured formazan, in cell work by metabolically active cells.
Data set [3] has as its system Ishikawa. Kind of data set: Stimulation of cell proliferation in human Ishikawa cells at 10 uM after 48 hrs by MTT assay. The class given is ADME, cell-based.
In data set [4] the test system is Ishikawa. The data set can be described thus: Antiproliferative activity against human Ishikawa cells at >40 uM after 48 hrs by MTT assay. The data set is classed as functional, cell-based.
Data set [5] concerns MCF7. The data set can be described thus: Effect on PgR mRNA expression in human MCF7 cells at 1 uM by SYBR Green dye based RT-PCR analysis. The class given is functional, cell-based.
A further data set deals with Chorioallantoic membrane. The data set can be described thus: Antiangiogenic activity in chicken fertilized egg chorioallantoic membrane at 1 to 20 uM measured after 72 hrs. The class given is functional, tissue-based. The settings on record: Gallus gallus.
The target of data set [6] is Vascular endothelial growth factor receptor 2 (Homo sapiens) (UniProt P35968). The settings on record: HUVEC, at 1 µM.
Chain of Vascular endothelial growth factor receptor 2 (Homo sapiens) (P35968 whole entry): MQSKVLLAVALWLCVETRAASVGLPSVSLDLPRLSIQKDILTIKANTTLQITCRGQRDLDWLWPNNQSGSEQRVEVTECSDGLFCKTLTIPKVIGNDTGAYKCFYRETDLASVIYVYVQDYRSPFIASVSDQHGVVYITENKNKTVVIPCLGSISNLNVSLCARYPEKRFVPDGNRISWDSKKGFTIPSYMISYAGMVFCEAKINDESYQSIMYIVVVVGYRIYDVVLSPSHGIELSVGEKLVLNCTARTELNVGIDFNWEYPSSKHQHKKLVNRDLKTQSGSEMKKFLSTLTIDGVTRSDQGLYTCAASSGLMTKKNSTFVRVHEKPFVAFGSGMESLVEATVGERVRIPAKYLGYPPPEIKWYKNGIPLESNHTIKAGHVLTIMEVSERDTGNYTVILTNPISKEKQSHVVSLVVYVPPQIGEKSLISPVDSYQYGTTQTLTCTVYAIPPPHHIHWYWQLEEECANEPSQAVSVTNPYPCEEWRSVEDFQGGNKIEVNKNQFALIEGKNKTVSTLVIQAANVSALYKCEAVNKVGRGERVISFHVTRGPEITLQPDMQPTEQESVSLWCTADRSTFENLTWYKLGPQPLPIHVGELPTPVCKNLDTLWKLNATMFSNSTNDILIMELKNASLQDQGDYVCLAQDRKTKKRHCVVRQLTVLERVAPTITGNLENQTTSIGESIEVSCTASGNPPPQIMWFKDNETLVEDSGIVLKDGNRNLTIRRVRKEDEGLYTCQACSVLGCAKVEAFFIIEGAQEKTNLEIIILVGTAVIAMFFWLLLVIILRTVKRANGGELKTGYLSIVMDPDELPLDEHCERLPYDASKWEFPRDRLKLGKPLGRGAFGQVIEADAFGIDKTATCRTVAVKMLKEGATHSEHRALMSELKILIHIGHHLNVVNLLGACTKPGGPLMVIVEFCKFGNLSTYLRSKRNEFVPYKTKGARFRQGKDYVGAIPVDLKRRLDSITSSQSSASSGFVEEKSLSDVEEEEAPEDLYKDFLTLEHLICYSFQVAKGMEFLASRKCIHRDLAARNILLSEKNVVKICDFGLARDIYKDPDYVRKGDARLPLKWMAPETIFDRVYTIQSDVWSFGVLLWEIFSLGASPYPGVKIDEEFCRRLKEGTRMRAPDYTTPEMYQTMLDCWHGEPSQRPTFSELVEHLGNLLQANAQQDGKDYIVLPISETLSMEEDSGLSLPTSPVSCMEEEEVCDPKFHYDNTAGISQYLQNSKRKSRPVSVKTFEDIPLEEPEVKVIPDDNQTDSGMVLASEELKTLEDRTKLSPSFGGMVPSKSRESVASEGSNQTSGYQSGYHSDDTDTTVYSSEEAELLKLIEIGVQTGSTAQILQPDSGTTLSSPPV
Description: Inhibition of VEGFR2 phosphorylation in HUVEC at 1 uM after 24 hrs by Western blot analysis

As usually defined, the pIC50 is the negative decadic logarithm of the IC50, by convention in mol/L. Low values mean a large IC50, high ones a small IC50. With `CCN(CC)CC(=O)Nc1ccc(Nc2nc(-c3ccc(O)cc3)cc(-c3ccc(O)cc3)n2)cc1`, the figures for the pIC50 with MCF7 [1], in the data set with HUVEC and in the data set with Ishikawa [2] were 4.57, 4.72 and 4.76, respectively.
As to `O=C(CN1CCCCC1)Nc1ccc(Nc2nc(-c3ccc(O)cc3)cc(-c3ccc(O)cc3)n2)cc1`, the negative logarithm of the IC50 (pIC50) was 4.58 in the data set on MCF7 [1], 5.13 with HUVEC and 4.87 in the data set with Ishikawa [2].
With `COc1ccc(-c2cc(-c3ccc(O)cc3)nc(Nc3ccc(NC(=O)CN4CCN(C)CC4)cc3)n2)cc1`, the pIC50 in the data set on MCF7 [1] is 5.39; in the data set on HUVEC, 5.33; in the data set with Ishikawa [2], 5.38.
Taken in the same sequence, the figures for `Oc1ccc(-c2cc(-c3ccc(O)cc3)nc(Nc3ccc(OCCN4CCCCC4)cc3)n2)cc1` were 5.21, 5.34 and 5.30.
`COc1ccc(-c2cc(-c3ccc(O)cc3)nc(Nc3ccc(OCCN4CCN(C)CC4)cc3)n2)cc1`: the pIC50 is 5.32 in the data set on MCF7 [1], 5.62 in the data set on HUVEC and 5.28 in the data set with Ishikawa [2].
In turn, `Oc1ccc(-c2cc(-c3ccc(O)cc3)nc(Nc3ccc(OCCN4CCOCC4)cc3)n2)cc1` showed a pIC50 with HUVEC of 4.13.
Regarding `COc1ccc(-c2cc(-c3ccc(O)cc3)nc(Nc3ccc(NC(=O)CN4CCOCC4)cc3)n2)cc1`, the pIC50 was 4.72 in the data set on MCF7 [1], 4.99 with HUVEC and 4.37 in the data set with Ishikawa [2].
As for `COc1ccc(-c2cc(-c3ccc(OC)cc3)nc(Nc3ccc(OCCN4CCN(C)CC4)cc3)n2)cc1`, the pIC50 in the data set with MCF7 [1] is 5.38; in the data set with HUVEC, 5.52; with Ishikawa [2] it was 5.24.
As for `COc1ccc(-c2cc(-c3ccc(O)cc3)nc(Nc3ccc(NC(=O)CN(C)C)cc3)n2)cc1`, the pIC50 with MCF7 [1] was 5.47; in the data set with HUVEC, 5.42; in the data set with Ishikawa [2], 5.20.
For `CC/C(=C(\c1ccccc1)c1ccc(OCCN(C)C)cc1)c1ccccc1` [TAMOXIFEN], the Activity entry in the data set on Ishikawa [3] was “Toxic”. Also, the outcome with Ishikawa [4] was Active. Also, the result with MCF7 [5] was inactive.
Turning to `COc1ccc(-c2cc(-c3ccc(OC)cc3)nc(Nc3ccc(NC(=O)CN(C)C)cc3)n2)cc1`, the pIC50 is 5.60 in the data set on MCF7 [1], 5.55 in the data set on HUVEC and 5.44 in the data set with Ishikawa [2].
Regarding `COc1ccc(-c2cc(-c3ccc(OC)cc3)nc(Nc3ccc(OCCN(C)C)cc3)n2)cc1`, the pIC50 with MCF7 [1] is 5.44; in the data set with HUVEC, 5.34; in the data set on Ishikawa [2], 5.29.
As for `COc1ccc(-c2cc(-c3ccc(O)cc3)nc(Nc3ccc(NC(=O)CN4CCCC4)cc3)n2)cc1`, the pIC50 is 5.35 in the data set on MCF7 [1], 5.64 with HUVEC and 5.26 with Ishikawa [2].
Turning to `COc1ccc(-c2cc(-c3ccc(O)cc3)nc(Nc3ccc(OCCN(C)C)cc3)n2)cc1`, the figures for the pIC50 with MCF7 [1], with HUVEC and in the data set on Ishikawa [2] were 5.44, 5.33 and 5.28, respectively.
For `CN(C)CC(=O)Nc1ccc(Nc2nc(-c3ccc(O)cc3)cc(-c3ccc(O)cc3)n2)cc1`, the figures for the pIC50 in the data set with MCF7 [1], in the data set on HUVEC and with Ishikawa [2] were 4.40, 4.22 and 5.10, respectively.
As to `O=C(CN1CCCC1)Nc1ccc(Nc2nc(-c3ccc(O)cc3)cc(-c3ccc(O)cc3)n2)cc1`, the pIC50 in the data set with MCF7 [1] was 4.71; in the data set with HUVEC, 5.15; in the data set on Ishikawa [2], 5.08.
On to `COc1ccc(-c2cc(-c3ccc(OC)cc3)nc(Nc3ccc(OCCN4CCCCC4)cc3)n2)cc1`, for which the pIC50 is 4.49 with MCF7 [1], 5.27 with HUVEC and 5.72 in the data set with Ishikawa [2].
Taken in the same sequence, the figures for `CCN(CC)CCOc1ccc(Nc2nc(-c3ccc(OC)cc3)cc(-c3ccc(OC)cc3)n2)cc1` were 5.30, 5.66 and 5.37.
Taken in the same sequence, the figures for `O=C(CN1CCOCC1)Nc1ccc(Nc2nc(-c3ccc(O)cc3)cc(-c3ccc(O)cc3)n2)cc1` were 4.81, 4.33 and 4.22.
With `CCN(CC)CCOc1ccc(Nc2nc(-c3ccc(O)cc3)cc(-c3ccc(OC)cc3)n2)cc1`, the results for the pIC50 in the data set with MCF7 [1], in the data set with HUVEC and with Ishikawa [2] were 5.25, 5.46 and 5.19, respectively.
The compound `CCN(CC)CCNC(=O)c1c(C)[nH]c(/C=C2\C(=O)Nc3ccc(F)cc32)c1C` [SUNITINIB] had a pIC50 in the data set on HUVEC of 5.52. In addition, the outcome in the data set with Chorioallantoic membrane was Active.
Take `CN(C)CCOc1ccc(Nc2nc(-c3ccc(O)cc3)cc(-c3ccc(O)cc3)n2)cc1`: the pIC50 is 4.71 in the data set on MCF7 [1], 5.33 with HUVEC and 5.80 in the data set on Ishikawa [2].
`COc1ccc(-c2cc(-c3ccc(O)cc3)nc(Nc3ccc(OCCN4CCCCC4)cc3)n2)cc1`: the pIC50 is 4.77 with MCF7 [1], 5.35 with HUVEC and 5.32 with Ishikawa [2].
On the same counts, the results for `COc1ccc(-c2cc(-c3ccc(O)cc3)nc(Nc3ccc(NC(=O)CN4CCCCC4)cc3)n2)cc1` are below 4.00, 4.97 and 5.85.
For the compound `CN1CCN(CCOc2ccc(Nc3nc(-c4ccc(O)cc4)cc(-c4ccc(O)cc4)n3)cc2)CC1`, the pIC50 with MCF7 [1] is 5.28; with HUVEC, 5.60; in the data set with Ishikawa [2] it was 5.27.
On the same counts, the results for `Oc1ccc(-c2cc(-c3ccc(O)cc3)nc(Nc3ccc(OCCN4CCCC4)cc3)n2)cc1` are 4.24, 5.33 and 5.35.
Regarding `CN1CCN(CC(=O)Nc2ccc(Nc3nc(-c4ccc(O)cc4)cc(-c4ccc(O)cc4)n3)cc2)CC1`, the negative logarithm of the IC50 (pIC50) in the data set on MCF7 [1] was 5.28; with HUVEC, 5.17; in the data set with Ishikawa [2] it was 5.31.
Turning to `COc1ccc(-c2cc(-c3ccc(O)cc3)nc(Nc3ccc(OCCN4CCCC4)cc3)n2)cc1`, the pIC50 with MCF7 [1] is 5.34; in the data set with HUVEC, 5.51; with Ishikawa [2] it was 5.23.
Taken in the same sequence, the figures for `COc1ccc(-c2cc(-c3ccc(OC)cc3)nc(Nc3ccc(NC(=O)CN4CCN(C)CC4)cc3)n2)cc1` were 5.74, 5.30 and 5.24.
On to `COc1ccc(-c2cc(-c3ccc(OC)cc3)nc(Nc3ccc(NC(=O)CN4CCCC4)cc3)n2)cc1`, for which the pIC50 is 5.66 in the data set on MCF7 [1], 5.60 in the data set with HUVEC and 5.72 with Ishikawa [2]. In addition, the outcome with MCF7 [5] was inactive. For the same compound, in the data set with Chorioallantoic membrane, the result was Active. Also, the inhibition result in data set [6] was “Active”.
Consider `CCN(CC)CC(=O)Nc1ccc(Nc2nc(-c3ccc(O)cc3)cc(-c3ccc(OC)cc3)n2)cc1`, for which the figures for the pIC50 with MCF7 [1], in the data set on HUVEC and in the data set on Ishikawa [2] were 4.31, 4.66 and 4.79, respectively.
With `COc1ccc(-c2cc(-c3ccc(OC)cc3)nc(Nc3ccc(OCCN4CCCC4)cc3)n2)cc1`, the pIC50 was 5.59 in the data set with MCF7 [1], 5.68 in the data set with HUVEC and 5.41 in the data set with Ishikawa [2].
`COc1ccc(-c2cc(-c3ccc(OC)cc3)nc(Nc3ccc(NC(=O)CN4CCOCC4)cc3)n2)cc1` gave a pIC50 in the data set with MCF7 [1] of 4.48.
As to `CCN(CC)CCOc1ccc(Nc2nc(-c3ccc(O)cc3)cc(-c3ccc(O)cc3)n2)cc1`, the pIC50 in the data set on MCF7 [1] is 5.29; with HUVEC it was 5.60; in the data set on Ishikawa [2], 5.32.
